# Values joined by “and” are separate entries in the source; they are usually repeats but may differ in a detail not shown here. Equal entries are not always repeated. Where two headings read alike, the source gives them in different places.
# Key:
# [1] = tested on: hippocampal extracellular serotonin levels; details: mice; ref Whittington and Virag, 2006; cited from earlier work
# [2] = tested on: serotonin release in the rat frontal cortex; details: ref Mukaida et al., 2007; cited from earlier work
# [3] = rat, in vivo; cited from earlier work
# 5-HT1A receptors = details: ref Wooten et al., cited from earlier work
# rabbits [4] = assay: 14-Day Toxicity Study of FCWAY, intravenous; assay type: in vivo; details: from rabbit 0.3 mg/kg/day
# rabbits [5] = details: intravenous, 14 consecutive days, ref PDSP data base; cited from earlier work
# [6] = humans, baseline and with disulfiram; ref Ryu et al., 2007; cited from earlier work
# [7] = humans, with disulfiram; ref Ryu et al., 2007; cited from earlier work
# human = details: ref PDSP data base; cited from earlier work
# human P-glycoprotein = details: cited from earlier work
structure (smiles),measurement,setting,value
FC(F)OC(Cl)C(F)(F)F (stereo not drawn) [Isoflurane],Hippocampal extracellular serotonin levels,[1],< 40 % of baseline
same,"Serotonin release, frontal cortex",[2],< 40 % of awake state
O=C(O)[C@H]1CC[C@H](C[18F])CC1 [^18F-FMCHA],Brain penetration and retention,[3],poor penetration and retention
COc1ccccc1N1CCN(CCN(C(=O)C2CCCC(CF)C2)c2ccccn2)CC1 (stereo not drawn) [3-Mefway analog],In vivo binding properties compared to 4-Mefway,5-HT1A receptors; 2014,lower in vivo binding properties
COc1ccccc1N1CCN(CCN(C(=O)C2CCC(F)CC2)c2ccccn2)CC1 (stereo not drawn) [FCWAY],Human equivalent dose (HED) of the no-effect level,rabbits [4],0.097 mg/kg
same,No-effect level,rabbits [5],0.3 mg/kg body weight/day
COc1ccccc1N1CCN(CCN(C(=O)C2CCC([18F])CC2)c2ccccn2)CC1 (stereo not drawn) [^18F-FCWAY],Plasma free fraction,[6],13% and ~ 13%
same,Decrease of plasma clearance compared to baseline,[7],47%
"COc1ccccc1N1CCN(CCN(C(=O)C2CCC(CF)CC2)c2ccccn2)CC1 (single isomer, unassigned) [cis-isomer of Mefway]",Binding compared to trans-isomer,5-HT1A receptors; 2011a,lower binding
"COc1ccccc1N1CCN(CCN(C(=O)C2CCCCC2)c2ccccn2)CC1 [WAY-100635, N-{2-[4-(2-methoxyphenyl)piperazin-1-yl]ethyl}-N-(pyridine-2-yl)cyclohexanecarboxamide]",Daily dose safely used in human,human,up to 700 μg/kg
same,Substrate of human P-glycoprotein,"human P-glycoprotein; ref Tournier et al., 2011",not being suitable substrates
COc1ccccc1N1CCN(CCN(C(=O)c2ccc(F)cc2)c2ccccn2)CC1 [MPPF],Substrate of human P-glycoprotein,human P-glycoprotein,not being suitable substrates
